Source: PubChem BioAssay (NCI)
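Following 48 hours of exposure in 96-well plates, responses at five concentrations were used to interpolate endpoints linearly. The concentration for 50% growth inhibition is given as GI50. TGI is the concentration that stops growth completely.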

Columns and labels:
Assay in all cases: NCI anticancer screen, dose series, 48 h
[1] = tested on: HCC-2998 colon
[2] = tested on: COLO 205 colon
[3] = tested on: A549 NSCLC
[4] = tested on: OVCAR-4 ovarian
[5] = tested on: K-562 leukemia
[6] = tested on: IGROV1 ovarian
[7] = tested on: NCI-H522 lung
[8] = tested on: 786-0 renal
[9] = tested on: SF-295 CNS
[10] = tested on: BT-549 breast

What does the source list for `N#CC1C=Cc2c(ccc3ccccc23)N1C(=O)c1ccccc1` (stereo unspecified)?
GI50 [1]: 0.43 µM; TGI [1]: > 47.6 µM; GI50 [2]: 0.251 µM; TGI [2]: 0.706 µM; GI50 [3]: 0.339 µM; TGI [3]: > 100 µM; GI50 [4]: 1.47 µM; TGI [4]: > 100 µM; GI50 [5]: 0.0537 µM; TGI [5]: > 100 µM; GI50 [6]: 0.105 µM; TGI [6]: 3.23 µM; GI50 [7]: 0.0274 µM; TGI [7]: 0.0924 µM; GI50 [8]: 0.909 µM; TGI [8]: > 100 µM; GI50 [9]: 0.0268 µM; TGI [9]: 0.0747 µM; GI50 [10]: 2.29 µM; TGI [10]: > 60.1 µM

Which TGI [1] does the source give for `CC(=C/c1ccccc1)/C=C1/NC(=S)N(/C=C2\C(=O)Oc3ccccc3C2=O)C1=O` here?
Its TGI is over 100 µM.

What about the TGI [2] of the same compound?
The TGI was over 100 µM.

And the TGI [3]?
Its TGI is over 100 µM.

And the TGI [4]?
Its TGI is over 100 µM.

And the TGI [5]?
The TGI was over 100 µM.

What about the GI50 [6] of the same compound?
The GI50 was 86.7 µM.

What about the TGI [6] of the same compound?
The TGI was over 100 µM.

What about the TGI [7] of the same compound?
Its TGI is over 90.5 µM.

And the GI50 [8]?
The GI50 was 57.6 µM.

What about the TGI [8] of the same compound?
The TGI was over 100 µM.

What about the TGI [9] of the same compound?
The TGI was over 100 µM.

And the GI50 [10]?
The GI50 was 36.8 µM.

And the TGI [10]?
Its TGI is over 100 µM.

Which GI50 [1] does the source give for `O=C1OCC2=C1C(c1ccccc1)c1cc3c(cc1N2CCO)OCCO3` (stereo unspecified) here?
The GI50 was 0.182 µM.

And the TGI [1]?
The TGI was 0.722 µM.

And the GI50 [2]?
Its GI50 is 0.24 µM.

What about the TGI [2] of the same compound?
Its TGI is 0.978 µM.

And the GI50 [3]?
Its GI50 is 0.62 µM.

And the TGI [3]?
Its TGI is over 40.1 µM.

What about the GI50 [4] of the same compound?
Its GI50 is 0.587 µM.

What about the TGI [4] of the same compound?
Its TGI is over 50 µM.

What about the GI50 [5] of the same compound?
Its GI50 is 0.191 µM.

What about the TGI [5] of the same compound?
The TGI was over 50 µM.

What about the GI50 [6] of the same compound?
The GI50 was 0.161 µM.

And the TGI [6]?
Its TGI is 1.41 µM.

What about the GI50 [7] of the same compound?
Its GI50 is 0.0593 µM.

What about the TGI [7] of the same compound?
The TGI was 0.165 µM.

And the GI50 [8]?
Its GI50 is 0.288 µM.

And the TGI [8]?
Its TGI is over 50 µM.

And the GI50 [9]?
The GI50 was 0.183 µM.

And the GI50 [10]?
The GI50 was 0.465 µM.

And the TGI [10]?
The TGI was over 13.7 µM.

What does the source list for `Cc1cc(C(=O)c2ccccc2)c(C)c2c1[nH]c1ccc(Cl)cc12`?
GI50 [1]: 0.176 µM; TGI [1]: 8.14 µM; GI50 [2]: 0.102 µM; TGI [2]: 1.36 µM; GI50 [3]: 0.0834 µM; TGI [3]: > 100 µM; GI50 [4]: 3.01 µM; TGI [4]: 60 µM; GI50 [5]: 0.0348 µM; TGI [5]: > 100 µM; GI50 [6]: 0.0657 µM; TGI [6]: 15.7 µM; GI50 [7]: 0.0267 µM; TGI [7]: 4.9 µM; GI50 [8]: 0.0629 µM; TGI [8]: 3.51 µM; GI50 [9]: 0.0294 µM; TGI [9]: 0.363 µM; GI50 [10]: 0.0941 µM; TGI [10]: 3.56 µM

Which GI50 [1] does the source give for `CCN(CC)c1ccc(/C=C/C=C2\NC(=O)NC2=O)cc1` here?
The GI50 was 2.44 µM.

And the TGI [1]?
Its TGI is 29.1 µM.

What about the GI50 [2] of the same compound?
The GI50 was 3.22 µM.

What about the TGI [2] of the same compound?
The TGI was 16.2 µM.

And the GI50 [3]?
The GI50 was 3.69 µM.

What about the TGI [3] of the same compound?
The TGI was 32.7 µM.

And the GI50 [4]?
The GI50 was 9.01 µM.

And the TGI [4]?
The TGI was over 100 µM.

What about the GI50 [5] of the same compound?
Its GI50 is 3.7 µM.

What about the TGI [5] of the same compound?
The TGI was over 100 µM.

What about the GI50 [6] of the same compound?
Its GI50 is 3.57 µM.

And the TGI [6]?
The TGI was over 100 µM.

And the GI50 [7]?
Its GI50 is 0.92 µM.

What about the TGI [7] of the same compound?
Its TGI is 4.11 µM.

What about the GI50 [8] of the same compound?
The GI50 was 2.93 µM.

And the TGI [8]?
Its TGI is 34.2 µM.

What about the GI50 [9] of the same compound?
Its GI50 is 1.54 µM.

And the TGI [9]?
Its TGI is over 100 µM.

What about the GI50 [10] of the same compound?
Its GI50 is 1.53 µM.

And the TGI [10]?
The TGI was 40.8 µM.

Which GI50 [1] does the source give for `CC[C@H](C)C(=O)O[C@H]1C[C@H](O)C=C2C=C[C@H](C)[C@H](CC[C@@H](O)C[C@@H](O)CC(=O)O)[C@H]21` here?
Its GI50 is over 100 µM.

And the TGI [1]?
Its TGI is over 100 µM.

And the GI50 [2]?
The GI50 was over 100 µM.

And the TGI [2]?
The TGI was over 100 µM.

And the GI50 [3]?
Its GI50 is over 100 µM.

And the TGI [3]?
The TGI was over 100 µM.

And the GI50 [4]?
The GI50 was over 100 µM.

And the TGI [4]?
The TGI was over 100 µM.

What about the GI50 [5] of the same compound?
The GI50 was over 100 µM.

And the TGI [5]?
Its TGI is over 100 µM.

And the GI50 [6]?
Its GI50 is over 100 µM.

And the TGI [6]?
Its TGI is over 100 µM.

And the GI50 [7]?
The GI50 was 63 µM.

And the TGI [7]?
The TGI was over 100 µM.

What about the GI50 [8] of the same compound?
Its GI50 is over 100 µM.

What about the TGI [8] of the same compound?
The TGI was over 100 µM.

What about the GI50 [9] of the same compound?
The GI50 was over 100 µM.

What about the TGI [9] of the same compound?
Its TGI is over 100 µM.

And the GI50 [10]?
Its GI50 is over 100 µM.

And the TGI [10]?
Its TGI is over 100 µM.

Which GI50 [1] does the source give for `COc1cc(-c2csc(NC(=O)Nc3cc(Cl)cc(Cl)c3)n2)cc(OC)c1OC` here?
Its GI50 is 2.39 µM.

What about the TGI [1] of the same compound?
The TGI was 5.55 µM.

And the GI50 [2]?
Its GI50 is 3.11 µM.

What about the TGI [2] of the same compound?
Its TGI is 11.4 µM.

What about the GI50 [3] of the same compound?
The GI50 was 1.72 µM.

And the TGI [3]?
The TGI was 3.61 µM.

What about the GI50 [4] of the same compound?
Its GI50 is 1.78 µM.

And the TGI [4]?
The TGI was 3.36 µM.

And the GI50 [5]?
Its GI50 is 4.4 µM.

And the TGI [5]?
Its TGI is over 100 µM.

And the GI50 [6]?
Its GI50 is 2.03 µM.

And the TGI [6]?
The TGI was 4.04 µM.

And the GI50 [7]?
The GI50 was 2.05 µM.

And the TGI [7]?
The TGI was 7.09 µM.

And the GI50 [8]?
The GI50 was 1.84 µM.

And the TGI [8]?
The TGI was 3.33 µM.

What about the GI50 [9] of the same compound?
The GI50 was 1.55 µM.

And the TGI [9]?
The TGI was 3.01 µM.

What about the GI50 [10] of the same compound?
Its GI50 is 2.2 µM.

And the TGI [10]?
Its TGI is 4.65 µM.

For `CCCCCCCCCCCCCCCCCC(=O)Nc1ccn(C2OC(CO)C(O)C2O)c(=O)n1` (stereo unspecified), which TGI [1] is on record?
The TGI was over 100 µM.

What about the TGI [2] of the same compound?
Its TGI is over 100 µM.

What about the TGI [3] of the same compound?
The TGI was over 100 µM.

What about the TGI [4] of the same compound?
The TGI was over 100 µM.

And the TGI [5]?
Its TGI is over 100 µM.

What about the TGI [6] of the same compound?
The TGI was over 100 µM.

What about the TGI [7] of the same compound?
Its TGI is 75.4 µM.

What about the TGI [8] of the same compound?
Its TGI is over 100 µM.

And the TGI [9]?
Its TGI is over 100 µM.

What about the TGI [10] of the same compound?
The TGI was over 91.5 µM.

Which results are given for `CC(=O)c1nc2ccccc2n1CC(=O)c1cccc(Cl)c1`?
GI50 [1]: 1.5 µM; GI50 [2]: 16.1 µM; TGI [2]: > 79.1 µM; GI50 [3]: 2.67 µM; TGI [3]: > 100 µM; GI50 [4]: 0.752 µM; TGI [4]: > 100 µM; GI50 [5]: 0.113 µM; TGI [5]: > 44.1 µM; GI50 [6]: 0.543 µM; TGI [6]: > 100 µM; GI50 [7]: 0.0846 µM; TGI [7]: 0.719 µM; GI50 [8]: 0.886 µM; TGI [8]: > 41.4 µM; GI50 [9]: 1.27 µM; TGI [9]: > 23.2 µM; GI50 [10]: 1.12 µM; TGI [10]: > 100 µM
